Assay results from publication PMC5007552, “The hVps34‐SGK3 pathway alleviates sustained PI3K/Akt inhibition by stimulating mTORC1 and tumour growth” (The EMBO Journal, 2016).
“And” between values parts separate entries of the source, which are not always exact repeats. Identical values can stand only once.

System: ZR-75-1 cells
Assay: NanoString human kinome mRNA quantification
Format: cell-based
Text: Human mRNAs were hybridised to NanoString human kinome and control code sets, then subjected to quantification using NanoString software. […] To permit data compaction, and simple kinome‐wide comparisons, the fold changes are log2 transformed. […] Cell pellets were resuspended at a concentration of ~6,500 cells/μl in RLT buffer (Qiagen). […] For total copy numbers, triplicate normalised count values were averaged, and to calculate fold induction, means were divided by triplicate mean values from matched DMSO controls. P‐values were calculated using unpaired t‐test (GraphPad Prism software) by employing treated and control count data for each kinase mRNA.

With `NC1(c2ccc(-c3nc4ccn5c(=O)[nH]nc5c4cc3-c3ccccc3)cc2)CCC1` [MK-2206] the Normalised counts (EGFR mRNA, single replicates) was 75.1 and 79.82 and 79.29, the Average normalised counts (EIF2AK1 mRNA) was 3890.11 and the Normalised counts (EIF2AK1 mRNA, single replicates) was 3762.77 and 3749.38 and 4158.18. For the same molecule, the Average normalised counts (EIF2AK2 mRNA) was 387.137, the Normalised counts (EIF2AK2 mRNA, single replicates) was 351.43 and 373.45 and 436.53 and the Average normalised counts (EIF2AK3 mRNA) was 167.45. For the same molecule, the Normalised counts (EIF2AK3 mRNA, single replicates) was 158.73 and 166.69 and 176.93, the Average normalised counts (EIF2AK4 mRNA) was 999.56 and the Normalised counts (EIF2AK4 mRNA, single replicates) was 986.79 and 999.81 and 1012.08. The Average normalised counts (EPHA1 mRNA) was 298.103, the Normalised counts (EPHA1 mRNA, single replicates) was 293.25 and 307.43 and 293.63 and the Average normalised counts (EPHA2 mRNA) was 98.1433. The Normalised counts (EPHA2 mRNA, single replicates) was 101.46 and 85.9 and 107.07, the Average normalised counts (EPHA3 mRNA) was 1 and the Normalised counts (EPHA3 mRNA, single replicates) was 1. For the same molecule, the Average normalised counts (EPHA4 mRNA) was 54.0467, the Normalised counts (EPHA4 mRNA, single replicates) was 47.83 and 66.78 and 47.53 and the Average normalised counts (EPHA5 mRNA) was 2.657. The Normalised counts (EPHA5 mRNA, single replicates) was 2.39 and 2.5 and 3.08, the Average normalised counts (EPHA6 mRNA) was 46.39 and the Normalised counts (EPHA6 mRNA, single replicates) was 39.65 and 42.46 and 57.06. For the same molecule, the Average normalised counts (EPHA7 mRNA) was 9.993, the Normalised counts (EPHA7 mRNA, single replicates) was 14.2 and 10.32 and 5.46 and the Average normalised counts (EPHA8 mRNA) was 2.44. For the same molecule, the Normalised counts (EPHA8 mRNA, single replicates) was 4.2 and 1.63 and 1.49, the Average normalised counts (EPHA10 mRNA) was 29.9233 and the Normalised counts (EPHA10 mRNA, single replicates) was 36.93 and 25.95 and 26.89. The Average normalised counts (EPHB1 mRNA) was 2.73, the Normalised counts (EPHB1 mRNA, single replicates) was 4.2 and 2.5 and the Average normalised counts (EPHB2 mRNA) was 16.0233. The Average normalised counts (EPHB3 mRNA) was 206.547, the Average normalised counts (EPHB4 mRNA) was 1166.85 and the Average normalised counts (EPHB6 mRNA) was 2.217. For the same molecule, the Average normalised counts (ERBB2 mRNA) was 3923.04, the Average normalised counts (ERBB3 mRNA) was 1260.11 and the Average normalised counts (ERBB4 mRNA) was 408.193. It also gave an Average normalised counts (ERN1 mRNA) of 386.247, an Average normalised counts (ERN2 mRNA) of 2.483 and an Average normalised counts (FASTK mRNA) of 67.2133. The Average normalised counts (FASTKD1 mRNA) was 614.733, the Average normalised counts (FASTKD2 mRNA) was 563.933 and the Average normalised counts (FASTKD3 mRNA) was 173.083. It also gave an Average normalised counts (FASTKD5 mRNA) of 437.597, an Average normalised counts (FER mRNA) of 455.723 and an Average normalised counts (FES mRNA) of 1.427. It also gave an Average normalised counts (FGFR1 mRNA) of 1112.53, an Average normalised counts (FGFR2 mRNA) of 189.803 and an Average normalised counts (FGFR3 mRNA) of 1392.79. The Average normalised counts (FGFR4 mRNA) was 1462.07, the Average normalised counts (FGFRL1 mRNA) was 1225.18 and the Average normalised counts (FGR mRNA) was 1. For the same molecule, the “Average normalised counts FLJ25006” value (FLJ25006 mRNA, average of 3 replicates) was 106.973, the “Normalised counts FLJ25006” value (FLJ25006 mRNA, single replicates) was 105.1 and 102.4 and 113.42 and the “Average normalised counts FLT1” value (FLT1 mRNA, average of 3 replicates) was 1. The “Normalised counts FLT1” value (FLT1 mRNA, single replicates) was 1, the “Average normalised counts FLT3” value (FLT3 mRNA, average of 3 replicates) was 149.337 and the “Normalised counts FLT3” value (FLT3 mRNA, single replicates) was 146.91 and 161.48 and 139.62. The “Average normalised counts FLT4” value (FLT4 mRNA, average of 3 replicates) was 1.957, the “Normalised counts FLT4” value (FLT4 mRNA, single replicates) was 1 (2×) and 3.87 and the “Average normalised counts FRK” value (FRK mRNA, average of 3 replicates) was 160.35. For the same molecule, the “Normalised counts FRK” value (FRK mRNA, single replicates) was 165.09 and 158.87 and 157.09, the “Average normalised counts FYN” value (FYN mRNA, average of 3 replicates) was 5.563 and the “Normalised counts FYN” value (FYN mRNA, single replicates) was 5.11 and 7.71 and 3.87. The “Average normalised counts GAK” value (GAK mRNA, average of 3 replicates) was 673.637, the “Normalised counts GAK” value (GAK mRNA, single replicates) was 641.39 and 690.54 and 688.98 and the “Average normalised counts GRK1” value (GRK1 mRNA, average of 3 replicates) was 10.12. The “Normalised counts GRK1” value (GRK1 mRNA, single replicates) was 8.75 and 4.24 and 17.37, the “Average normalised counts GRK4” value (GRK4 mRNA, average of 3 replicates) was 59.8967 and the “Normalised counts GRK4” value (GRK4 mRNA, single replicates) was 59.65 and 50.28 and 69.76. For the same molecule, the “Normalised counts GRK5” value (GRK5 mRNA, single replicates) was 18.75 and 22.48 and 22.13, the “Average normalised counts GRK7” value (GRK7 mRNA, average of 3 replicates) was 1.957 and the “Normalised counts GRK7” value (GRK7 mRNA, single replicates) was 1 (2×) and 3.87. For the same molecule, the “Average normalised counts GSG2” value (GSG2 mRNA, average of 3 replicates) was 390.143, the “Normalised counts GSG2” value (GSG2 mRNA, single replicates) was 395.97 and 394.3 and 380.16 and the “Average normalised counts GSK3A” value (GSK3A mRNA, average of 3 replicates) was 3191.73. The “Normalised counts GSK3A” value (GSK3A mRNA, single replicates) was 3156.49 and 3192.52 and 3226.18, the “Average normalised counts GSK3B” value (GSK3B mRNA, average of 3 replicates) was 4035 and the “Normalised counts GSK3B” value (GSK3B mRNA, single replicates) was 3944.57 and 4049.09 and 4111.34. For the same molecule, the “Average normalised counts GUCY2C” value (GUCY2C mRNA, average of 3 replicates) was 1, the “Normalised counts GUCY2C” value (GUCY2C mRNA, single replicates) was 1 and the “Average normalised counts GUCY2D” value (GUCY2D mRNA, average of 3 replicates) was 5.627. The “Normalised counts GUCY2D” value (GUCY2D mRNA, single replicates) was 6.02 and 8.58 and 2.28, the “Average normalised counts GUCY2F” value (GUCY2F mRNA, average of 3 replicates) was 1.693 and the “Normalised counts GUCY2F” value (GUCY2F mRNA, single replicates) was 1 (2×) and 3.08. For the same molecule, the “Average normalised counts HCK” value (HCK mRNA, average of 3 replicates) was 1.533, the “Normalised counts HCK” value (HCK mRNA, single replicates) was 1.48 and 1.63 and 1.49 and the “Average normalised counts HIPK1” value (HIPK1 mRNA, average of 3 replicates) was 582.127.
